Measured values published in patent US8206732B2, “Pyrithione biocides enhanced by silver, copper, or zinc ions” (Arch Chemicals, Inc., priority 1999, dated 2012).
Where “and” joins values, the source holds several entries; their conditions need not be identical. Equal values may be shown once.

Key:
[1] = test system: Aspergillus niger ATCC 6275; assay: MIC in Tryptic Soy Broth, microtiter (Example 1); assay type: cell-based; conditions: 28° C.
Fusarium sp. [2] = assay: MIC in Tryptic Soy Broth, microtiter (Example 1); assay type: cell-based; conditions: TSB with 0.5 ppm Cu (II), 28° C., 5 days
Method: Equal volumes of bacterial suspension (10^6 bacteria per milliliter of TSB) containing Pseudomonas aeruginosa ATCC 9027 or fungal spore suspension (10^5 spores per milliliter of TSB) containing Aspergillus niger ATCC 6275 or species of Fusarium and Cephalosporium isolated from contaminated metalworking fluid were added to each microtiter plate well, and the plates were incubated at 28° C. Controls were prepared for cultures inoculated into TSB with and without Cu (II).

Cephalosporium sp. = assay: MIC in Tryptic Soy Broth, microtiter (Example 1); assay type: cell-based; conditions: 28° C.
[3] = test system: Escherichia coli ATCC 10536; assay: Zone of inhibition test (paper disc on TSA); assay type: cell-based; conditions: 6.5 mm discs; 0.135% pyrithione, 0.1% ZnCl2 or both; 28° C., 24 hr
[4] = test system: Staphylococcus aureus ATCC 27217; assay: Checkerboard MIC test, pyrithiones with zinc salts; assay type: cell-based; conditions: pyrithione alone or pyrithione concentration in the inhibitory mixture; TSB, 28 C, 3 days
Fusarium sp. [5] = assay: Checkerboard MIC test, pyrithiones with zinc salts; assay type: cell-based; conditions: pyrithione alone or pyrithione concentration in the inhibitory mixture; TSB, 28 C, 5 days
Method: Mixtures of pyrithione and zinc or silver in various proportions were tested for relative efficacy by a modification of the procedure described by Dougherty, et al.
Equal volumes of bacteria (10^6 cells/ml) or fungi (10^5 spores/ml) were added to each microtiter plate well. The plates were incubated at 28 C for 3 days (bacteria) or 5 days (fungi), and the minimum inhibitory concentration (MIC) of biocide was determined. The Fractional Inhibitory Concentration (FIC=concentration of biocide in an inhibitory mixture divided by the MIC of the pure biocide) was determined, and the FIC Index (sum of the two FIC's) was calculated. The type of interaction was categorized according to the magnitude of the Index: Synergistic (<1), Additive (1), or Antagonistic (>1).

[6] = test system: Staphylococcus aureus 27217; assay: Checkerboard MIC test, pyrithiones with silver salts; assay type: cell-based; conditions: NaPT alone or in the inhibitory mixture with silver salt; TSB pH 7.3, 35° C., 1 to 2 days
[7] = test system: Pseudomonas aeruginosa 9027; assay: as above; assay type: cell-based; conditions: NaPT alone or in the inhibitory mixture with silver salt; TSB pH 7.3, 35° C., 1 to 2 days
Candida albicans 10251 = assay: as above; assay type: cell-based; conditions: NaPT alone or in the inhibitory mixture with silver salt; TSB pH 7.3, 35° C., 1 to 2 days
Pityrosporum ovale 1452 = assay: as above; assay type: cell-based; conditions: NaPT alone or in the inhibitory mixture with silver salt; Ushijima Medium pH 5.5, 35° C., 1 to 2 days
[8] = test system: P. aeruginosa 9027 free-living cells; assay: Viable free-living cells in bulk metalworking fluid (Example 5); assay type: cell-based, Pseudomonas aeruginosa; conditions: 100 PPM NaPT; for viable free-living cells in the bulk fluid: 5% soluble oil MWF, 2.5 PPM Zn(II) or both, 4 days
[9] = test system: Fusarium sp. free-living cells; assay: as above; assay type: cell-based; conditions: 100 PPM NaPT, 10 PPM Zn (II) or both, 4 days after treatment
Method: Experiments were conducted to investigate the efficacy of the composition of the present invention to inhibit the survival, growth, and proliferation of free-living and biofilm populations of bacteria and fungi in metalworking fluids. […] Metalworking fluids (MWF) employed included 5% soluble oil MWF, 5% semi-synthetic MWF, or 5% synthetic MWS. For testing against bacteria, metalworking fluids were supplemented with 2% (weight-to-weight ratio (w:w)) of 5 g/L yeast extract (Difco), Metalworking fluids were supplemented with 2% (weight-to-weight (w:w)) of Tryptic Soy Broth (Difco) for fungal tests.
For each experiment, three ml of a 5% metalworking fluid was added to each of twelve, sterile, 16 mm×150 mm glass culture tubes. […] Fusarium sp. was added to the tubes to final concentrations of 10^5 spores/ml for the fungal tests. Tubes incubated for 3 days at 28° C. and 180 rpms.
After the treatments additions were performed, the culture tubes resumed incubation at 28° C., 180 rpms for an additional 4 days.
After 4 days, culture tubes were removed from the incubator and viable counts of organisms from the bulk MWF fluid and the biofilm were determined using serial dilution and drop plating techniques. For biofilms, polycarbonate discs were removed from tubes, dip-rinsed in three successive washes of de-ionized water to remove loosely attached cells, and transferred to 25 mm×150 mm culture tubes containing 10 ml of sterile, de-ionized water. Biofilms were removed from discs and resuspended by vortexing tubes for 30 seconds. Bacteria were plated on to R2A Agar plates and incubated at 37° C. Fungi were plated onto Malt Agar plates and incubated at 28° C. Mean colony forming units per ml (for bulk) and per square cm (cm^2) biofilm were determined for each experimental treatment.

[10] = test system: P. aeruginosa 9027 biofilm; assay: Viable biofilm cells on discs in metalworking fluid (Example 5); assay type: cell-based, Pseudomonas aeruginosa; conditions: 100 PPM NaPT; for viable biofilm cells: 5% soluble oil MWF, 2.5 PPM Zn(II) or both, 4 days
[11] = test system: Fusarium sp. and Cephalosporium sp.; assay: Various mixtures of NaPT and Zn(II) against fungi in 5% metalworking fluid (Example 8, Table 10b); assay type: cell-based

## [Na+].[O-][n+]1ccccc1[S-] [NaPT, sodium pyrithione]
[1]; TSB with 0.5 ppm Cu (II), 7-8 days
  MIC NaPT (with 0.5 ppm Cu): 8 ppm
[1]; TSB, incubated 7-8 days, single agent (NaPT without Cu)
  MIC: 128 ppm
Fusarium sp. [2]
  MIC NaPT (with 0.5 ppm Cu): 8 ppm
Cephalosporium sp.; TSB with 0.5 ppm Cu (II), 5 days
  MIC NaPT (with 0.5 ppm Cu): 16 ppm
Cephalosporium sp.; TSB, incubated 5 days, single agent (NaPT without Cu)
  MIC: 64 ppm
[3]
  Zone of Inhibition: 35 mm
[4]
  MIC Pyrithione: 4 ppm
Fusarium sp. [5]
  MIC Pyrithione: 411 ppm
[6]
  MIC NaPT: 4 ppm and 8 ppm
[7]
  MIC NaPT: 256 ppm
Candida albicans 10251
  MIC NaPT: 16 ppm
Pityrosporum ovale 1452
  MIC NaPT: 4 ppm
[8]; tube with Polycarbonate surface
  viable free-living cells in the bulk fluid: 4.9 × 10^5 cells/ml
[8]; tube with Rubber surface
  viable free-living cells in the bulk fluid: 50 cells/ml
[8]; tube with Steel surface
  viable free-living cells in the bulk fluid: 3.5 × 10^6 cells/ml
[8]; 5% synthetic MWF, 10 PPM Zn (II) or both, 4 days after treatment
  viable free-living microorganisms: 7.8 × 10^6 cells/ml and 7.0 × 10^5 cells/ml and 5.4 × 10^5 cells/ml
[9]; 5% semisynth. MWF
  viable free-living microorganisms: 2.8 × 10^5 cells/ml
[9]; 5% solub. oil MWF
  viable free-living microorganisms: 4.2 × 10^6 cells/ml
[9]; 5% synthetic MWF
  viable free-living microorganisms: 6.0 × 10^6 cells/ml
[9]; 100% TSB
  viable free-living microorganisms: 0 cells/ml
[10]; 5% solub. oil MWF, polycarbonate disc, 10 PPM Zn (II) or both, 4 days after treatment
  viable biofilm microorganisms: 2.0 × 10^5 cells/cm^2 and 2.6 × 10^4 cells/cm^2
[10]; Polycarbonate surface
  viable biofilm cells: 2.8 × 10^4 cells/cm^2
[10]; Rubber surface
  viable biofilm cells: 5.3 × 10^2 cells/cm^2
[10]; Steel surface
  viable biofilm cells: 1.1 × 10^5 cells/cm^2
[11]; semi-synthetic, NaPT 100 PPM, Day 1
  Fungi/ml: 1.1 × 10^4 Fungi/ml
[11]; semi-synthetic, NaPT 100 PPM, Day 1, tube of the Day 1/Day 4 series
  Fungi/ml: 2.0 × 10^4 Fungi/ml
[11]; semi-synthetic, NaPT 100 PPM, Day 2
  Fungi/ml: 1.3 × 10^3 Fungi/ml
[11]; semi-synthetic, NaPT 100 PPM, Day 4
  Fungi/ml: 1.0 × 10^4 Fungi/ml
[11]; semi-synthetic, NaPT 100 PPM, Day 7
  Fungi/ml: 0 Fungi/ml
[11]; semi-synthetic, NaPT 300 PPM, Day 1
  Fungi/ml: 3.0 × 10^3 Fungi/ml
[11]; semi-synthetic, NaPT 300 PPM, Day 2
  Fungi/ml: 570 Fungi/ml
[11]; semi-synthetic, NaPT 300 PPM, Day 7
  Fungi/ml: 0 Fungi/ml
[11]; semi-synthetic, NaPT 500 PPM, Day 1
  Fungi/ml: 9.0 × 10^3 Fungi/ml
[11]; semi-synthetic, NaPT 500 PPM, Day 2
  Fungi/ml: 300 Fungi/ml
[11]; semi-synthetic, NaPT 500 PPM, Day 7
  Fungi/ml: 0 Fungi/ml
[11]; soluble oil, NaPT 100 PPM, Day 1
  Fungi/ml: 3.2 × 10^4 Fungi/ml
[11]; soluble oil, NaPT 100 PPM, Day 1, tube of the Day 1/Day 4 series
  Fungi/ml: 3.6 × 10^4 Fungi/ml
[11]; soluble oil, NaPT 100 PPM, Day 2
  Fungi/ml: 2.9 × 10^4 Fungi/ml
[11]; soluble oil, NaPT 100 PPM, Day 4
  Fungi/ml: 2.9 × 10^4 Fungi/ml
[11]; soluble oil, NaPT 100 PPM, Day 7
  Fungi/ml: 1.5 × 10^4 Fungi/ml
[11]; soluble oil, NaPT 300 PPM, Day 1
  Fungi/ml: 1.7 × 10^4 Fungi/ml
[11]; soluble oil, NaPT 300 PPM, Day 2
  Fungi/ml: 1.0 × 10^4 Fungi/ml
[11]; soluble oil, NaPT 300 PPM, Day 7
  Fungi/ml: 560 Fungi/ml
[11]; soluble oil, NaPT 500 PPM, Day 1
  Fungi/ml: 1.9 × 10^4 Fungi/ml
[11]; soluble oil, NaPT 500 PPM, Day 2
  Fungi/ml: 2.8 × 10^4 Fungi/ml
[11]; soluble oil, NaPT 500 PPM, Day 7
  Fungi/ml: 610 Fungi/ml
[11]; synthetic, NaPT 100 PPM, Day 1
  Fungi/ml: 3.0 × 10^4 Fungi/ml
[11]; synthetic, NaPT 100 PPM, Day 1, tube of the Day 1/Day 4 series
  Fungi/ml: 9.0 × 10^3 Fungi/ml
[11]; synthetic, NaPT 100 PPM, Day 2
  Fungi/ml: 2.0 × 10^3 Fungi/ml
[11]; synthetic, NaPT 100 PPM, Day 4
  Fungi/ml: 5.0 × 10^3 Fungi/ml
[11]; synthetic, NaPT 100 PPM, Day 7
  Fungi/ml: 2.0 × 10^3 Fungi/ml
[11]; synthetic, NaPT 300 PPM, Day 1
  Fungi/ml: 2.9 × 10^4 Fungi/ml
[11]; synthetic, NaPT 300 PPM, Day 2
  Fungi/ml: 2.1 × 10^4 Fungi/ml
[11]; synthetic, NaPT 300 PPM, Day 7
  Fungi/ml: 1.2 × 10^4 Fungi/ml
[11]; synthetic, NaPT 500 PPM, Day 1
  Fungi/ml: 2.7 × 10^4 Fungi/ml
[11]; synthetic, NaPT 500 PPM, Day 2
  Fungi/ml: 4.0 × 10^3 Fungi/ml
[11]; synthetic, NaPT 500 PPM, Day 7
  Fungi/ml: 3.0 × 10^3 Fungi/ml
